Assay results published in the supplement of paper PMC10307832.

Experiments:
Assay in all cases: relative viability (nuclei count vs DMSO), 5 days (fraction); higher = more cells survive
Kobe2602 + Trametinib = compound: C1=CC(=CC=C1NC(=S)NNC2=C(C=C(C=C2[N+](=O)[O-])C(F)(F)F)[N+](=O)[O-])F [Kobe2602] + CC(=O)Nc1cccc(-n2c(=O)n(C3CC3)c(=O)c3c(Nc4ccc(I)cc4F)n(C)c(=O)c(C)c32)c1 [Trametinib] (partner 0.02 µM)
How it was run: (§1)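 Lung cancer cell lines were seeded in 1536-well plates and dosed by pin tool the next day, with either a single drug or a fixed anchor-drug dose combined with five library-drug doses (not always all listed) spaced in √10 steps. Five days later, one step fixed the cells and stained their nuclei (final 0.05% Triton X-100, 1% formaldehyde, 1 ug/ml Hoechst), and nuclei were counted on 4× images. Relative viability is the nuclei count in treated wells divided by the count in vehicle wells, and each value is the median of duplicate plates.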

Kobe2602 + Pemetrexed = compound: C1=CC(=CC=C1NC(=S)NNC2=C(C=C(C=C2[N+](=O)[O-])C(F)(F)F)[N+](=O)[O-])F [Kobe2602] + Nc1nc2[nH]cc(CCc3ccc(C(=O)N[C@@H](CCC(=O)O)C(=O)O)cc3)c2c(=O)[nH]1 [Pemetrexed] (partner 0.2 µM)
How it was run: as §1

Zosuquidar + Alpelisib = compound: O[C@@H](COc1cccc2ncccc12)CN1CCN([C@@H]2c3ccccc3[C@@H]3[C@H](c4ccccc42)C3(F)F)CC1 [Zosuquidar] + Cc1nc(NC(=O)N2CCC[C@H]2C(N)=O)sc1-c1ccnc(C(C)(C)C(F)(F)F)c1 [Alpelisib] (partner 2 µM)
How it was run: as §1

Zosuquidar + Decitabine = compound: O[C@@H](COc1cccc2ncccc12)CN1CCN([C@@H]2c3ccccc3[C@@H]3[C@H](c4ccccc42)C3(F)F)CC1 [Zosuquidar] + Nc1ncn([C@H]2C[C@H](O)[C@@H](CO)O2)c(=O)n1 [Decitabine] (partner 2 µM)
How it was run: as §1

Cell Line | relative viability (Kobe2602 + Trametinib; first compound 0.2 µM) | relative viability (Kobe2602 + Trametinib; first compound 0.6325 µM) | relative viability (Kobe2602 + Trametinib; first compound 2 µM) | relative viability (Kobe2602 + Trametinib; first compound 6.325 µM) | relative viability (Kobe2602 + Trametinib; first compound 20 µM) | relative viability (Kobe2602 + Pemetrexed; first compound 0.2 µM) | relative viability (Kobe2602 + Pemetrexed; first compound 0.6325 µM) | relative viability (Kobe2602 + Pemetrexed; first compound 2 µM) | relative viability (Kobe2602 + Pemetrexed; first compound 6.325 µM) | relative viability (Kobe2602 + Pemetrexed; first compound 20 µM) | relative viability (Zosuquidar + Alpelisib; first compound 0.01 µM) | relative viability (Zosuquidar + Alpelisib; first compound 0.03162 µM) | relative viability (Zosuquidar + Alpelisib; first compound 0.1 µM) | relative viability (Zosuquidar + Alpelisib; first compound 1 µM) | relative viability (Zosuquidar + Decitabine; first compound 0.01 µM) | relative viability (Zosuquidar + Decitabine; first compound 0.03162 µM) | relative viability (Zosuquidar + Decitabine; first compound 0.1 µM) | relative viability (Zosuquidar + Decitabine; first compound 0.3162 µM) | relative viability (Zosuquidar + Decitabine; first compound 1 µM) | relative viability (Zosuquidar + Alpelisib; first compound 0.3162 µM)
NCI-H441 | 0.509 | 0.496 | 0.472 | 0.433 | 0.54 | 0.285 | 0.217 | 0.244 | 0.279 | 0.288 | 0.998 | 0.766 | 0.732 | 0.591 | 0.234 | 0.249 | 0.235 | 0.248 | 0.251 | 
LU99A | 0.546 | 0.647 | 0.571 | 0.534 | 0.593 | 0.179 | 0.169 | 0.186 | 0.207 | 0.163 | 0.472 | 0.507 | 0.475 | 0.529 | 0.835 | 1.09 | 0.946 | 0.917 | 1.04 | 0.617
NCI-H2405 | 0.644 | 0.712 | 0.621 | 0.66 | 0.669 | 1.07 | 1.21 | 0.888 | 1.1 | 1.08 | 0.968 | 0.745 | 0.605 | 0.837 | 0.737 | 0.777 | 0.734 | 0.767 | 0.758 | 0.972
NCI-H2009 | 0.297 | 0.373 | 0.332 | 0.305 | 0.274 | 1.02 | 1.03 | 1.09 | 1.02 | 0.979 | 1.08 | 0.96 | 1.19 | 1.14 | 0.348 | 0.338 | 0.376 | 0.327 | 0.344 | 1.15
HCC-827 | 0.546 | 0.546 | 0.571 | 0.537 | 0.558 | 0.293 | 0.241 | 0.281 | 0.261 | 0.261 | 0.935 | 1.01 | 0.759 | 0.96 | 0.302 | 0.367 | 0.266 | 0.307 | 0.295 | 1.07
NCI-H838 | 0.516 | 0.566 | 0.49 | 0.536 | 0.466 | 0.257 | 0.251 | 0.261 | 0.246 | 0.232 | 0.995 | 0.994 | 0.822 | 1.07 | 0.488 | 0.49 | 0.486 | 0.496 | 0.502 | 1.07
RERF-LC-KJ | 0.839 | 0.836 | 0.864 | 0.802 | 0.525 | 0.468 | 0.469 | 0.498 | 0.496 | 0.449 | 0.809 | 0.913 | 0.745 | 0.874 | 0.717 | 0.727 | 0.691 | 0.776 | 0.691 | 0.887
NCI-H2347 | 0.291 | 0.251 | 0.336 | 0.304 | 0.326 | 0.432 | 0.467 | 0.427 | 0.443 | 0.431 | 1.1 | 0.991 | 0.833 | 0.984 | 0.689 | 0.648 | 0.657 | 0.694 | 0.643 | 1.16
PC-14 | 0.697 | 0.693 | 0.659 | 0.823 | 0.361 | 0.15 | 0.137 | 0.134 | 0.15 | 0.14 | 0.916 | 1.05 | 0.864 | 0.923 | 0.224 | 0.176 | 0.212 | 0.195 | 0.205 | 0.944
HCC-366 | 0.284 | 0.386 | 0.31 | 0.297 | 0.302 | 0.157 | 0.179 | 0.16 | 0.146 | 0.328 | 0.519 | 0.449 | 0.337 | 0.401 | 0.322 | 0.291 | 0.429 | 0.515 | 0.277 | 0.438
LCLC-97TM1 | 0.184 | 0.186 |  | 0.207 | 0.257 | 0.204 | 0.15 |  | 0.14 | 0.161 | 0.187 | 0.237 |  | 0.234 | 0.27 | 0.217 |  | 0.253 | 0.224 | 0.224
HCC-44 | 1.04 | 1.16 | 1.02 | 0.939 | 0.967 | 0.595 | 0.684 | 0.653 | 0.671 | 0.609 | 0.753 | 0.817 | 0.842 | 0.755 | 0.981 | 0.961 | 1 | 0.934 | 0.919 | 0.885
A-427 | 0.804 | 0.745 | 0.793 | 0.739 | 0.742 | 0.993 | 1.08 | 0.963 | 0.956 | 0.902 | 1.08 | 1.01 | 0.902 | 1.04 | 0.582 | 0.561 | 0.584 | 0.653 | 0.557 | 1.07
NCI-H23 | 0.428 | 0.49 | 0.359 | 0.385 | 0.444 | 0.653 | 0.8 | 0.82 | 0.584 | 0.742 | 0.669 | 0.718 | 0.728 | 0.687 | 0.29 |  | 0.306 | 0.302 | 0.324 | 0.704
